Measured values: ChEMBL document CHEMBL1146936, “Synthesis and evaluation of arylaminoethyl amides as noncovalent inhibitors of cathepsin S. Part 3: heterocyclic P3” (Bioorg Med Chem Lett, 2006)

How the values were obtained:
[1] = Half life in Wistar rat at 10 mg/kg, po; format: ADME, organism-based; set-up: dose 10 mg/kg, route oral; conditions: in vivo
[2] = AUC in Wistar rat at 10 mg/kg, po; format: ADME, organism-based; set-up: dose 10 mg/kg, route oral; conditions: plasma
[3] = Clearance in Wistar rat at 3 mg/kg, iv; format: ADME, organism-based; set-up: dose 3 mg/kg, route intravenous; conditions: in vivo
[4] = system: Rattus norvegicus; assay: Plasma concentration in Wistar rat at 10 mg/kg, po; format: ADME, organism-based; set-up: dose 10 mg/kg, route oral; conditions: in vivo
[5] = Half life in Wistar rat at 3 mg/kg, iv; format: ADME, organism-based; set-up: dose 3 mg/kg, route intravenous; conditions: in vivo
[6] = Volume of distribution in Wistar rat at 3 mg/kg, iv; format: ADME, organism-based; set-up: dose 3 mg/kg, route intravenous; conditions: in vivo, read-out: Vss
[7] = Oral bioavailability in Wistar rat at 10 mg/kg, po; format: ADME, organism-based; conditions: in vivo
[8] = Cmax in Wistar rat at 10 mg/kg, po; format: ADME, organism-based; set-up: dose 10 mg/kg, route oral; conditions: in vivo
[9] = system: Liver microsomes; assay: Metabolic stability in Wistar rat liver microsome; format: ADME

Structure (SMILES)	half-life [1]	AUC [2]	clearance [3]	concentration [4]	half-life [5]	Vd [6]	Cp [4]	bioavailability [7]	Cmax [8]	Stability [9]
C[C@@H](CN1c2ccc(F)cc2CC1(C)C)NC(=O)[C@H](CC1CCCCC1)Nc1nc2cccc(Cl)c2o1	4.1 h	900 ng·h/mL	–	–	–	–	–	–	–	–
O=C(O)C[C@@H](CN1CCc2cc(F)ccc21)NC(=O)[C@H](CC1CCCCC1)Nc1nc2ccc(Cl)cc2o1	–	–	23.2 mL/min/kg	> 1000 nM	1 h	0.74 L/kg	–	–	–	–
CCOC(=O)C[C@@H](CN1CCc2cc(F)ccc21)NC(=O)[C@H](CC1CCCCC1)Nc1nc2ccc(Cl)cc2o1	1 h	1580 ng·h/mL	–	–	–	–	Not Active	22%	1100 nM	–
C[C@@H](CN1CC(C)(C)c2cc(F)ccc21)NC(=O)[C@H](CC1CCCCC1)Nc1nc2cccc(Cl)c2o1	5.1 h	2400 ng·h/mL	10.1 mL/min/kg	–	8.3 h	0.9 L/kg	–	15%	1260 nM	–
C[C@@H](CN1CCc2cc(F)ccc21)NC(=O)[C@H](CC1CCCCC1)Nc1nc2cccc(Cl)c2o1	1.1 h	1080 ng·h/mL	33.1 mL/min/kg	–	2.3 h	2.57 L/kg	–	24%	703 nM	–
COc1ccc(NCCNC(=O)[C@H](CC2CCCCC2)Nc2nc3ccccc3o2)cc1	5.3 h	15 ng·h/mL	11.4 mL/min/kg	–	4.8 h	1.63 L/kg	Not Active	< 1%	12 nM	< 5%
